Source: US20080004290A1, “Anti-Cancer Agents” (THE UNIVERSITY OF QUEENSLAND, priority 2003, published 2008)
Read-outs that look alike come from different tables or passages of the source.

Tests used:
Format in all cases: cell-based, human
[1] = system: NFF, neonatal foreskin fibroblasts; experiment: Cell survival assay (clonogenic survival, SRB), normal cells
Outline: (§1)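 Cells (5×10^3/well, RPMI 1640 with 10% FCS) treated 24 h with compound at 0.01-10 μg/mL, then washed and grown 72 h drug-free at 37 °C, 5% CO2. Survival read by SRB staining after methylated-spirit fixation, absorbance 564 nm.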

MM96L melanoma cells = experiment: Cell survival assay (clonogenic survival, SRB)
Outline: as §1

[2] = system: CI-80-13S ovarian cancer cells; experiment: Cell survival assay (SRB)
Description: (§2) Cell Lines and Culture Medium. All cell lines used in this study have been described previously (Parsons et al., 1986; Todaro et al., 1980; Glenn et al., 2004). All cell lines were cultured in 10% heat-inactivated foetal calf serum (CSL, Australia) in RPMI 1640 medium supplemented with 100 U/mL penicillin, 100 μg/mL streptomycin, and 3 mM HEPES at 5% CO2, 99% humidity at 37° C. Primary human fibroblasts were obtained from neonatal foreskins and cultured in the above medium. Routine mycoplasma tests were performed using Hoechst stain^i and were always negative.
(§3) Cell Survival Assay. Cells were plated into 96-well microtitre plates at 5×10^3 cells/well, and allowed to adhere overnight. Test compounds were added to culture medium at the indicated concentrations, and plates incubated in the above conditions for 24 hours. Following this incubation period, compounds and media were removed, and replaced with fresh culture medium. Cells were then grown for a further 72 hours before assay using sulforhodamine B (SRB; Sigma, St. Louis, Mo.) as previously described. Briefly, the culture medium was removed from the 96-well microtitre plates and the plates washed twice with phosphate buffered saline (PBS), before the cells were fixed with methylated spirits for 15 minutes. The plates were then rinsed with tap water and the fixed cells stained with 50 μL/well of SRB solution (0.4% sulforhodamine B (w/v) in 1% (v/v) acetic acid) over a period of 1 hour. The SRB solution was then removed from the wells and the plates rapidly washed two times with 1% (v/v) acetic acid. Protein bound dye was then solubilised with the addition of 100 μL of 10 mM unbuffered Tris, and incubated for 15 min at 25° C. Plates were then read at 564 nm on a VERSA max tunable microplate reader (Molecular Devices, Sunnyvale, Calif.).
(§4) For comparison their results are also shown for MM96L and NFF cell lines.

DO4 melanoma cells = experiment: Cell survival assay (SRB); conditions: Table 10, standard deviations in parentheses, read-out: Cell line IC50 (μM) DO4
Description: as §2, §3, §4

[3] = system: DU145 prostate cancer cells; experiment: Cell survival assay (SRB)
Description: as §2, §3, §4

JAM ovarian cancer cells = experiment: Cell survival assay (SRB)
Description: as §2, §3, §4

[4] = system: MCF-7 breast cancer cells; experiment: Cell survival assay (SRB)
Description: as §2, §3, §4

SkMel28 melanoma cells = experiment: Cell survival assay (SRB)
Description: as §2, §3, §4

A549 cells = experiment: Cell survival assay (SRB)
Description: as §2, §3

Col208 cells = experiment: Cell survival assay (SRB)
Description: as §2, §3

H520 cells = experiment: Cell survival assay (SRB)
Description: as §2, §3

HOP62 cells = experiment: Cell survival assay (SRB)
Description: as §2, §3

HT29 cells = experiment: Cell survival assay (SRB)
Description: as §2, §3

PC-3 cells = experiment: Cell survival assay (SRB)
Description: as §2, §3

SK-MEL-5 cells = experiment: Cell survival assay (SRB)
Description: as §2, §3

T-47D cells = experiment: Cell survival assay (SRB)
Description: as §2, §3

[5] = Homo sapiens, MM96L, most preferred compounds, exemplary examples, read-out: potency of IC50 against the MM96 melanoma cells
[6] = Table 13, S enantiomer, IC50(NFF)/IC50(cancer cell line)

Compound: O=C(CCCSC[C@H](NC(=O)C(O)(c1ccccc1)c1ccccc1)C(=O)NCc1ccccc1)NO [Example 44]
- IC50 ([1]; Table 5, 24 hours with compound, further growth, SRB, read-out: IC50 NFF): 9.3 ± 0.7 µM
- IC50 ([1]; Table 10, standard deviations in parentheses, read-out: Cell line IC50 (μM) NFF): 0.8 µM
- IC50 (MM96L melanoma cells; Table 5, 24 hours with compound, further growth, SRB, read-out: IC50 MM96L): 1.8 ± 0.2 µM
- Selectivity (MM96L melanoma cells; Table 5, Selectivity Index = IC50 (NFF)/IC50 (MM96L)): 5.2
- IC50 (MM96L melanoma cells; Table 10, standard deviations in parentheses, read-out: Cell line IC50 (μM) MM96L): 0.2 µM
- IC50 ([2]; Table 10, standard deviations in parentheses, read-out: Cell line IC50 (μM) C18013S): 0.6 µM
- IC50 (DO4 melanoma cells): 2.1 µM
- IC50 ([3]; Table 10, standard deviations in parentheses, read-out: Cell line IC50 (μM) DU145): 1.7 µM
- IC50 (JAM ovarian cancer cells; Table 10, standard deviations in parentheses, read-out: Cell line IC50 (μM) JAM): 1.8 µM
- IC50 ([4]; Table 10, standard deviations in parentheses, read-out: Cell line IC50 (μM) MCF7): 0.7 µM
- IC50 (SkMel28 melanoma cells; Table 10, standard deviations in parentheses, read-out: Cell line IC50 (μM) SkMel): 2.5 µM

Compound: CN(C)c1ccc(NC(=O)[C@H](CSCCCC(=O)NO)NC(=O)c2ccc(N(C)C)cc2)cc1 [Example 59]
- IC50 ([1]; Homo sapiens, Fibroblast, 24 h, Table 6, 24 hours with compound, further growth, SRB, read-out: IC50 (μM) NFF): 0.6 ± 0.1 µM
- IC50 ([1]; Homo sapiens, Fibroblast, Table 10, standard deviations in parentheses, read-out: Cell line IC50 (μM) NFF): 0.6 µM
- IC50 (MM96L melanoma cells; Homo sapiens, MM96L, 24 h, Table 6, 24 hours with compound, further growth, SRB, read-out: IC50 (μM) MM96L): 0.1 ± 0.1 µM
- IC50 (MM96L melanoma cells; Homo sapiens, MM96L, Table 10, standard deviations in parentheses, read-out: Cell line IC50 (μM) MM96L): 0.1 µM
- IC50 (MM96L melanoma cells; [5]): ≤ 0.5 µM
- Selectivity (MM96L melanoma cells; Table 6, IC50 (NFF)/IC50 (MM96L)): 6.0
- IC50 ([2]; Homo sapiens, C180-13S, Table 10, standard deviations in parentheses, read-out: Cell line IC50 (μM) C18013S): 0.39 µM
- IC50 (DO4 melanoma cells; Homo sapiens, DO4): 1.05 µM
- IC50 ([3]; Homo sapiens, DU-145, Table 10, standard deviations in parentheses, read-out: Cell line IC50 (μM) DU145): 0.33 µM
- IC50 (JAM ovarian cancer cells; Homo sapiens, Table 10, standard deviations in parentheses, read-out: Cell line IC50 (μM) JAM): 0.43 µM
- IC50 ([4]; Homo sapiens, MCF7, Table 10, standard deviations in parentheses, read-out: Cell line IC50 (μM) MCF7): 0.39 µM
- IC50 (SkMel28 melanoma cells; Homo sapiens, SK-MEL-28, Table 10, standard deviations in parentheses, read-out: Cell line IC50 (μM) SkMel): 1.09 µM

Compound: O=C(/C=C/c1ccccc1)N[C@@H](CCCCCC(=O)NO)C(=O)Nc1cccc2cccnc12 [Example 146]
- IC50 ([1]; Homo sapiens, Fibroblast, NFF normal fibroblasts, 24 h with compound, further 72 h growth, SRB, read-out: IC50 (uM) NFF): 1.24 µM
- IC50 (MM96L melanoma cells; Homo sapiens, MM96L, MM96L melanoma, 24 h with compound, further 72 h growth, SRB, read-out: IC50 (uM) MM96L): 0.021 µM
- IC50 (MM96L melanoma cells; Homo sapiens, MM96L, Table 12, read-out: Cytoselectivities (nM) MM96L): 0.02 µM
- IC50 (MM96L melanoma cells; [5]): ≤ 0.5 µM
- SI (Selectivity Index = IC50 (NFF)/IC50 (MM96L)) (MM96L melanoma cells; NFF vs MM96L): 58.9
- Selectivity Index MM96L (MM96L melanoma cells; [6]): 63
- IC50 ([2]; Homo sapiens, read-out: Cytoselectivities (nM) CI80-13S): 0.028 µM
- Selectivity Index CI80-13S [2, 6]: 44
- IC50 ([3]; Homo sapiens, DU-145, DU145 (prostate), read-out: Cytoselectivities (nM) DU145): 0.03 µM
- Selectivity Index DU145 [3, 6]: 41
- IC50 (JAM ovarian cancer cells; Homo sapiens, read-out: Cytoselectivities (nM) JAM): 0.049 µM
- Selectivity Index JAM (JAM ovarian cancer cells; [6]): 25
- IC50 ([4]; Homo sapiens, MCF7, MCF-7 (breast), read-out: Cytoselectivities (nM) MCF-7): 0.017 µM
- Selectivity Index MCF-7 [4, 6]: 71
- IC50 (SkMel28 melanoma cells; Homo sapiens, SK-MEL-28 (melanoma), read-out: Cytoselectivities (nM) SK-MEL-28): 0.037 µM
- Selectivity Index SK-MEL-28 (SkMel28 melanoma cells; [6]): 34
- IC50 (A549 cells; Homo sapiens, A549 (lung), read-out: Cytoselectivities (nM) A549): 73 nM
- Selectivity Index A549 (A549 cells; [6]): 17
- IC50 (Col208 cells; Homo sapiens, Col208 (colon), read-out: Cytoselectivities (nM) Col208): 141 nM
- Selectivity Index Col208 (Col208 cells; [6]): 9
- IC50 (H520 cells; Homo sapiens, NCI-H520, read-out: Cytoselectivities (nM) H520): 27 nM
- Selectivity Index H520 (H520 cells; [6]): 46
- IC50 (HOP62 cells; Homo sapiens, HOP-62, HOP62 (lung), read-out: Cytoselectivities (nM) HOP62): 65 nM
- Selectivity Index HOP62 (HOP62 cells; [6]): 19
- IC50 (HT29 cells; Homo sapiens, HT-29, HT29 (colon), read-out: Cytoselectivities (nM) HT29): 99 nM
- Selectivity Index HT29 (HT29 cells; [6]): 13
- IC50 (PC-3 cells; Homo sapiens, PC-3, read-out: Cytoselectivities (nM) PC-3): 109 nM
- Selectivity Index PC-3 (PC-3 cells; [6]): 11
- IC50 (SK-MEL-5 cells; Homo sapiens, SK-MEL-5, read-out: Cytoselectivities (nM) SK-MEL-5): 29 nM
- Selectivity Index SK-MEL-5 (SK-MEL-5 cells; [6]): 43
- IC50 (T-47D cells; Homo sapiens, T47D, read-out: Cytoselectivities (nM) T-47D): 20 nM
- Selectivity Index T-47D (T-47D cells; [6]): 63
